Source: patent US20240343761A1, “APELINERGIC MACROCYCLES AND USES THEREOF” (priority 2021, published 2024)
Numbered stars: 1 amine (or outer) side, 2 acyl side, 3 side chain; on linkers, the order of the positions; unused ones are H or OH. Bridge positions count the residues as written; N and C are the ends. Square brackets hold non-standard residues; d marks the D form. Peptide text beside a SMILES is read from it. * marks the point of attachment. X3 = O=C([C@H](CCCCNCCC=[*:3])N[*:1])[*:2]; X9 = O=C([C@H](CCCNCCC=[*:3])N[*:1])[*:2]; X2 = Cc1ccc2nc(-c3ccc(N*)cc3)sc2c1; AllylGly = C=CC[C@H](N)C(=O)O; pGlu = O=C1CC[C@@H](C(=O)O)N1; Nle = CCCC[C@H](N)C(=O)O; Ava = NCCCCC(=O)O; Bn = c1ccc(C*)cc1

The compounds below were run against T1, human APJ (hAPJ) (Homo sapiens, UniProt P35414) (assay: Competitive radioligand binding ([125I][Nle75,Tyr77][Pyr1]-Ape13) on membranes of HEK293 cells stably expressing human APJ). Conditions: Ki binding.
T1 construct: expressed in transfected cells; cell membranes
T1 sequence (P35414 1-380): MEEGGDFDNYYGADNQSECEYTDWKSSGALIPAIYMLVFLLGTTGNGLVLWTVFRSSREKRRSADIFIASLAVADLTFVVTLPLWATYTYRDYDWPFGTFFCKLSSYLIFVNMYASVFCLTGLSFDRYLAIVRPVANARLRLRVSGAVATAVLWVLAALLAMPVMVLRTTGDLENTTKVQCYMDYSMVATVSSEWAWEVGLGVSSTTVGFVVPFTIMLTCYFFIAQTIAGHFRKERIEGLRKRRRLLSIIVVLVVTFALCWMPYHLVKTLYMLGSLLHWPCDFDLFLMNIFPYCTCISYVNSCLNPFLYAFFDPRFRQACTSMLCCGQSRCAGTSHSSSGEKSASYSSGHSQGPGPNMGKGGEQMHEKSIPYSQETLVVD
Protocol: HEK293 cells stably expressing YFP-tagged human APJ were cultured in DMEM medium supplemented with 10% FBS, at 37° C. under a humid atmosphere maintaining 5% CO2. Antibiotic G418 (400 μg/mL) was added to maintain a selection pressure for APJ-expressing cells while penicillin/streptomycin (0.1%) were used to prevent bacterial contamination.
Binding experiments were performed on cell membranes of HEK293 stably expressing the YFP-tagged human APJ receptor. Cells were frozen at −80° C. for storage and quickly thawed right before the experiments (1 min at 37° C.). […] The precipitate (cell membranes) was suspended in binding buffer (50 mM Tris-HCl, 0.2% BSA, pH 7.4). Binding assays were run in 96-well plates. […] (820 Ci/mmol)^3 and test ligand with a range of concentrations from 10^−1 to 10^−11 M in a total volume of 200 μL for 1 h at room temperature.
The incubation mixtures were filtered through a glass fiber filter (Millipore, pre-absorbed of PEI 0.5% for 2 h at 4° C.) to remove unbound ligands, and the filter membranes were washed three times with 170 μL cold binding buffer (4° C.). The γ emission was measured using a 1470 Wizard γ-counter from PerkinElmer (Waltham, USA) (80% efficiency).

Structure (SMILES)	Ki [µM]
CCCC[C@H](NC(=O)[C@@H]1CCCN1C(=O)CNC(=O)[C@H](CCCCN)NC(=O)[C@@H]1CC=CC[C@H](NC(=O)[C@@H]2CCC(=O)N2)C(=O)N2CCC[C@H]2C(=O)N[C@@H](C)C(=O)N[C@@H](CC(C)C)C(=O)N[C@@H](CO)C(=O)N1)C(=O)N1CCC[C@H]1C(=O)N[C@@H](Cc1ccccc1)C(=O)O [Compound 7, Pyr-c[X-P-A-L-S-X]c-K-G-P-Nle-P-F] ([pGlu][AllylGly]PALS[AllylGly]KGP[Nle]PF-OH; staple 2-7)	> 10
CCCC[C@H](NC(=O)[C@@H]1CCCN1C(=O)CNC(=O)[C@@H]1CC=CC[C@H](NC(=O)[C@@H]2CCC(=O)N2)C(=O)N2CCC[C@H]2C(=O)N[C@@H](C)C(=O)N[C@@H](CC(C)C)C(=O)N[C@@H](CO)C(=O)N[C@@H](Cc2c[nH]cn2)C(=O)N1)C(=O)N1CCC[C@H]1C(=O)N[C@@H](Cc1ccccc1)C(=O)O [Compound 8, Pyr-c[X-P-A-L-S-H-X]c-G-P-Nle-P-F] ([pGlu][AllylGly]PALSH[AllylGly]GP[Nle]PF-OH; staple 2-8)	> 10
CC(C)C[C@@H]1NC(=O)[C@H](CCCNC(=N)N)NC(=O)[C@@H](N)CC=CC[C@@H](C(=O)N[C@@H](CCCCN)C(=O)O)NC(=O)[C@H](CO)NC1=O [Compound 30, NH2-c[X-R-L-S-X]c-K] (H-[AllylGly]RLS[AllylGly]K-OH; staple 1-5)	> 10
CCCC[C@H](NC(=O)[C@@H]1CCCN1C(=O)CCCCNC(=O)[C@@H]1CC=CC[C@H](N)C(=O)N[C@@H](CCCNC(=N)N)C(=O)N[C@@H](CC(C)C)C(=O)N[C@@H](CO)C(=O)N1)C(=O)O [Compound 32, NH2-c[X-R-L-S-X]c-5Ava-P-Nle] (H-[AllylGly]RLS[AllylGly][Ava]P[Nle]-OH; staple 1-5)	> 10
N=C(N)NCCC[C@@H]1NC(=O)[C@@H](N)CC=CCCNCCC[C@@H](C(=O)N2CCC[C@H]2C(=O)N[C@@H](Cc2ccc(OCc3ccccc3)cc2)C(=O)O)NC1=O [Compound 51, NH2-c[X-R-Orn(N-butenyl)]-P-Tyr(Obn)] (H-[AllylGly]R[X9]PY(Bn)-OH; staple 1-3)	> 10
N=C(N)NCCC[C@H](N)C(=O)N[C@H]1CCCCNCCC=CC[C@@H](C(=O)N[C@H](Cc2ccc(OCc3ccccc3)cc2)C(=O)O)NC(=O)[C@@H]2CCCN2C1=O [Compound 57, NH2-R-c[K(N-butenyl)-P-X]-(D-Tyr(Obn))] (H-R[X3]P[AllylGly][dY](Bn)-OH; staple 2-4)	> 10
N=C(N)NCCC[C@H](N)C(=O)N[C@H]1CCCCNC(=O)CC[C@@H](C(=O)N[C@@H](Cc2ccc(OCc3ccccc3)cc2)C(=O)O)NC(=O)[C@@H]2CCCN2C1=O [Compound 58, NH2-R-c[K-P-E]-Tyr(Obn)] (H-RKPEY(Bn)-OH; lactam 2-4)	> 10
CCCC[C@H](NC(=O)[C@@H]1CCCN1C(=O)[C@@H]1CCCCNC(=O)CC[C@H](NC(=O)[C@H](CC(C)C)NC(=O)[C@H](CCCNC(=N)N)NC(=O)[C@@H]2CCCN2C(=O)[C@H](CCCNC(=N)N)NC(=O)[C@H](CCC(N)=O)NC(=O)[C@H](CCCNC(=N)N)NC(=O)[C@H](CCCNC(=N)N)NC(=O)[C@H](Cc2ccccc2)NC(=O)[C@H](CCCCN)NC(C)=O)C(=O)N[C@@H](Cc2c[nH]cn2)C(=O)N[C@@H](CCCCN)C(=O)N1)C(=O)N1CCC[C@H]1C(=O)N[C@@H](CC(=O)Nc1ccc(-c2nc3ccc(C)cc3s2)cc1)C(=O)O [Compound 68, Ac-K-F-R-R-Q-R-P-R-L-[E-H-K-K]-P-Nle-P-B2] (Ac-KFRRQRPRLEHKKP[Nle]PD(X2)-OH; lactam 10-13)	0.004 ± 0.001
